Data on ten molecules can be found in PMC4223017, “Structural Model of the hUbA1-UbcH10 Quaternary Complex: In Silico and Experimental Analysis of the Protein-Protein Interactions between E1, E2 and Ubiquitin” (PLoS ONE, 2014).

Data set [1] has as its target T1, GST-UbcH10 (Homo sapiens, UniProt O00762).
T1 construct: made in house; host or cells: E. coli BL21 (DE3) RP
T1 sequence (O00762 1-179): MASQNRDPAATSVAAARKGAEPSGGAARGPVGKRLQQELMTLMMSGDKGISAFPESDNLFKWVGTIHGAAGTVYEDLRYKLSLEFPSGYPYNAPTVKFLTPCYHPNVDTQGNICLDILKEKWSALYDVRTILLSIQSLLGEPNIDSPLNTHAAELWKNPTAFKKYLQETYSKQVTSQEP
Briefly: ELISA binding of biotinylated peptides to coated GST-UbcH10. The note with it: for binding to UbcH10, in words: ELISA on recombinant GST-UbcH10, biotinylated peptides; for Kd / KD (µM): ELISA, wells coated overnight at 4°C with 100 µg/ml GST-UbcH10 in PBS 1X, 1 mM TCEP, biotinylated peptides at 2.2, 11, 22, 44, 108 µM in PBS 1X (1 mM TCEP for U1 and ScrU1), streptavidin-HRP, OPD, read at 490 nm, GraphPad Prism. How it is done:
The PCR product was cloned into pGEX-4T1 expression vector (GE Healthcare), leading to a protein with a cleavable N-terminal GST tag (GST-UbcH10). E. coli BL21 (DE3) RP strain was transformed with the recombinant plasmid for GST-UbcH10. Overnight cultures were used to inoculate 500 ml LB medium containing 50 µg/ml ampicillin, and protein induction was performed by the addition of 1 mM IPTG at 22°C when an OD600 value of 0.7 was reached. After approximately 16 h the cells were harvested and the proteins were isolated by sonicating cell pellets resuspended in 30 ml PBS1X in the presence of an EDTA free protease inhibitor cocktail (Roche Diagnostics). The crude cell extract was cleared by centrifugation at 18000 rpm and the supernatant was loaded onto a 1 ml GST-trap column connected to AKTA FPLC system (GE-Healthcare) equilibrated with binding buffer PBS1X. After washing with ten volumes of binding buffer, a single elution step was performed with 50 mM TrisHCl, 10 mM reduced glutathione. The fractions containing GST-UbcH10 were pooled and extensively dialyzed against PBS1X at 4°C. The homogeneity of the protein was tested by SDS–PAGE and mass spectrometry.
Wells were coated overnight at 4°C with 100 µg/ml GST-UbcH10 in PBS 1X, 1 mM TCEP, in the presence of an EDTA free protease inhibitor cocktail (Roche Diagnostics). Binding step was performed with different concentrations of biotinylated peptides L1, L2, ScrL2, U1, ScrU1, S2 (2.2, 11, 22, 44, 108 µM) in PBS 1X (with 1 mM TCEP for U1 and ScrU1). A blocking solution 1% BSA in PBS 1X, 0.05% Tween-20 was used. Washes were executed with PBS 1X, 0.05% Tween-20. To verify the interaction a 1∶10000 dilution of horseradish peroxidase-conjugated streptavidin (Sigma Aldrich) in 0.3% BSA, PBS 1X was incubated for 1 hour. The colorimetric reaction was carried out with SIGMA-FAST OPD reagent (Sigma Aldrich), according to the manufacturer's instructions. Finally, readings were performed at 490 nm on a Model680 MicroplateReader (Bio-Rad, Hercules, CA-USA), and data were recorded by Microplate Manager 5.2 program and elaborated by GraphPad Prism program. Negative control experiments with the fusion tag GST in coating were performed in the same conditions described above.
On the basis of the 3D model of the quaternary complex, we have designed six peptides as molecular probes in order to calibrate their ability to interfere the binding of UbcH10. This strategy was motivated by two main reasons. First, the identification of short peptides that mediate protein-protein interaction seemed a priori effective for disrupting the protein-protein recognition and binding. While other strategies, i.e. introduction of specific mutations, may also be envisaged, it is unclear whether single-point mutants might lead to a significant destabilization of the complex or even to impede the formation of the quaternary complex. Second, since our ultimate goal is the design of compounds that might disrupt the ubiquitilation process, testing a series of suitably chosen short peptides represents a valuable proof-of-concept for supporting the potential therapeutic effect of peptidomimetics. Specifically, the peptides were designed to examine the capability of hUbA1 stretches that contribute to the protein-protein interface with UbcH10 (Figure S7). In particular, we have designed two peptides per interface, which will be denoted S for SCCH region, L for cross loop, and U for UFD (Table 4). In the UFD region peptides U1 and U2 were selected to test the relevance of the acidic residues in mediating the binding of the UbcH10 H1 helix. […] Finally, peptides L1 and L2 were chosen to explore the role of the cross loop region in assisting the interaction with UbcH10. All the peptides were synthesized as biotinylated derivatives by solid phase method and purified by RP-HPLC. Unfortunately, S1 and U2 were insoluble and so not testable in binding assays. […]

Data set [2] is described as follows: Solubility of the synthesized peptides (testability in binding assays). The format is physicochemical. The note with it: for Solubility: biotinylated peptide, not testable in binding assays; for solubility, in words: biotinylated peptides. From the text:
On the basis of the 3D model of the quaternary complex, we have designed six peptides as molecular probes in order to calibrate their ability to interfere the binding of UbcH10. This strategy was motivated by two main reasons. First, the identification of short peptides that mediate protein-protein interaction seemed a priori effective for disrupting the protein-protein recognition and binding. While other strategies, i.e. introduction of specific mutations, may also be envisaged, it is unclear whether single-point mutants might lead to a significant destabilization of the complex or even to impede the formation of the quaternary complex. Second, since our ultimate goal is the design of compounds that might disrupt the ubiquitilation process, testing a series of suitably chosen short peptides represents a valuable proof-of-concept for supporting the potential therapeutic effect of peptidomimetics. Specifically, the peptides were designed to examine the capability of hUbA1 stretches that contribute to the protein-protein interface with UbcH10 (Figure S7). In particular, we have designed two peptides per interface, which will be denoted S for SCCH region, L for cross loop, and U for UFD (Table 4). In the UFD region peptides U1 and U2 were selected to test the relevance of the acidic residues in mediating the binding of the UbcH10 H1 helix. […] Finally, peptides L1 and L2 were chosen to explore the role of the cross loop region in assisting the interaction with UbcH10. All the peptides were synthesized as biotinylated derivatives by solid phase method and purified by RP-HPLC. Unfortunately, S1 and U2 were insoluble and so not testable in binding assays. The ability of the soluble peptides to bind recombinant GST-UbcH10 was checked by ELISA, utilizing GST as control (data not shown).

Data set [3] concerns the target T2, GST-UbcH10 (UniProt O00762 1-179).
T2 construct: UbcH10, a Ubiquitin Conjugation Enzyme (E2); PCR product cloned into pGEX-4T1; The GST tag is cleavable but the fusion GST-UbcH10 was coated on the wells; PDB 1I7K (used only for modelling) lacks the first 30 residues and has Ser114; nothing says that the ELISA construct has these limits; also called E2; recombinant GST-UbcH10; source: E. coli BL21 (DE3) RP, purified (GST-trap column, dialysed …)
T2 sequence (looked up): T1 sequence (O00762 1-179)
Briefly: ELISA; wells coated overnight at 4°C with 100 µg/ml GST-UbcH10 in PBS, 1 mM TCEP; biotinylated peptides at 2.2, 11, 22, 44, 108 µM in PBS (1 mM TCEP for U1 and ScrU1); detection with streptavidin-HRP, reading at 490 nm; apparent KD. The conditions noted are these: both partners purified. Background: An ELISA detects its analyte on a solid surface through an enzyme-linked reagent.

Entries after “also recorded” stand apart in the source; their conditions may differ. Residues, ends and D or L forms follow the SMILES beside them. *: point of attachment. Biotin = O=C1N[C@H]2[C@H](CS[C@H]2CCCCC(=O)*)N1; Ahx = NCCCCCC(=O)O

Regarding `C[C@@H](O)[C@H](NC(=O)[C@H](CCCCN)NC(=O)[C@H](CO)NC(=O)[C@@H]1CCCN1C(=O)[C@H](CC(=O)O)NC(=O)[C@H](CO)NC(=O)CCCCCNC(=O)CCCC[C@@H]1SC[C@@H]2NC(=O)N[C@@H]21)C(=O)N[C@@H](CO)C(=O)N[C@@H](CCC(=O)O)C(=O)N[C@@H](Cc1ccc(O)cc1)C(=O)N[C@@H](CCC(N)=O)C(=O)N1CCC[C@H]1C(=O)N[C@@H](CO)C(=O)N[C@@H](CCC(=O)O)C(N)=O` [ScrL2] ({Biotin-Ahx}-SDPSKTSEYQPSE-NH2), on GST-UbcH10 [1], the “binding to UbcH10, in words” value is on record as “very poor binding” and the Kd is above 80 µM.

As for `CC(C)C[C@H](NC(=O)[C@H](CCC(=O)O)NC(=O)CCCCCNC(=O)CCCC[C@@H]1SC[C@@H]2NC(=O)N[C@@H]21)C(=O)N[C@@H](CC(N)=O)C(=O)N[C@@H](CS)C(=O)N[C@@H](CC(=O)O)C(=O)N[C@H](C(=O)N[C@@H](CCC(=O)O)C(=O)N[C@H](C(=O)N[C@@H](CCC(=O)O)C(=O)NCC(=O)N[C@@H](CO)C(=O)N[C@@H](CC(=O)O)C(=O)N[C@@H](CS)C(N)=O)C(C)C)C(C)C` [ScrU1] ({Biotin-Ahx}-ELNCDVEVEGSDC-NH2), on GST-UbcH10 [1], the “binding to UbcH10, in words” value was “very poor binding” and the Kd is above 100 µM. Regarding “IHVSDQELQSA [S1, peptide from hUbA1 SCCH region (Cys-cap), residues 807-817, biotinylated derivative]”, in data set [2], the “Solubility” value is on record as “Not soluble” and the “solubility, in words” value is “insoluble”. The like results for “LELCCNDESGEDV [U2, peptide from hUbA1 UFD region, residues 1036-1048, biotinylated derivative]” were, in that order, “Not soluble” and “insoluble; also recorded: low solubility”.

“RDEFEGLFKQPAEN [S2, peptide corresponding to helix H19 in the hUbA1 SCCH region, residues 649-662, designed as negative control]”: the “KD (µM)” value on GST-UbcH10 [1] was “No binding”.

As for “SQDPPEKSIPI [L1, peptide from hUbA1 cross loop, residues 621-631, biotinylated derivative]”, on GST-UbcH10 [1], the “binding to UbcH10, in words” value is “low affinity” and the “KD (µM)” value is on record as “No binding”.

B1: U1 peptide (hUbA1 UFD region, 1038-1050) (peptide)
peptide: {Biotin-Ahx}-LCCNDESGEDVEV-NH2
modifications: cysteine pairing not given here
notes: human UbA1 (E1), UFD region, residues 1038-1050; source: synthetic peptide (Fmoc solid phase, RP-HPLC purified)
Regarding B1, the Kd with GST-UbcH10 [3] is 10 µM.

B2: L2-scrambled peptide (peptide)
peptide: {Biotin-Ahx}-SDPSKTSEYQPSE-NH2
SMILES: C[C@@H](O)[C@H](NC(=O)[C@H](CCCCN)NC(=O)[C@H](CO)NC(=O)[C@@H]1CCCN1C(=O)[C@H](CC(=O)O)NC(=O)[C@H](CO)NC(=O)CCCCCNC(=O)CCCC[C@@H]1SC[C@@H]2NC(=O)N[C@@H]21)C(=O)N[C@@H](CO)C(=O)N[C@@H](CCC(=O)O)C(=O)N[C@@H](Cc1ccc(O)cc1)C(=O)N[C@@H](CCC(N)=O)C(=O)N1CCC[C@H]1C(=O)N[C@@H](CO)C(=O)N[C@@H](CCC(=O)O)C(N)=O
notes: scrambled order of the residues of peptide L2; also called ScrL2; source: synthetic peptide (Fmoc solid phase, RP-HPLC purified)
As to B2, in the data set with GST-UbcH10 [3], the Kd is above 80 µM.

B3: U1-scrambled peptide (peptide)
peptide: {Biotin-Ahx}-ELNCDVEVEGSDC-NH2
modifications: cysteine pairing not given here
notes: scrambled order of the residues of peptide U1; also called ScrU1; source: synthetic peptide (Fmoc solid phase, RP-HPLC purified)
For the molecule B3, in the data set with GST-UbcH10 [3], the Kd is above 100 µM.

B4: L2 peptide (hUbA1 cross loop, 615-627) (peptide)
peptide: {Biotin-Ahx}-TESYSSSQDPPEK-NH2
SMILES: C[C@@H](O)[C@H](NC(=O)CCCCCNC(=O)CCCC[C@@H]1SC[C@@H]2NC(=O)N[C@@H]21)C(=O)N[C@@H](CCC(=O)O)C(=O)N[C@@H](CO)C(=O)N[C@@H](Cc1ccc(O)cc1)C(=O)N[C@@H](CO)C(=O)N[C@@H](CO)C(=O)N[C@@H](CO)C(=O)N[C@@H](CCC(N)=O)C(=O)N[C@@H](CC(=O)O)C(=O)N1CCC[C@H]1C(=O)N1CCC[C@H]1C(=O)N[C@@H](CCC(=O)O)C(=O)N[C@@H](CCCCN)C(N)=O
notes: human UbA1 (E1), cross loop region, residues 615-627; source: synthetic peptide (Fmoc solid phase, RP-HPLC purified)
Regarding B4, in the data set with GST-UbcH10 [3], the Kd was 20 µM.
